The text below walks through data of patent US20030166707A1, “Microsphaeropsin B as novel antibacterial agent, process for producing the same and pharmaceutical composition containing thereof” (priority 2001, published 2003).

Data set [1] has as its system S. epdermidis ATCC1228. Put plainly: MIC, standard microbroth dilution (NCCLS). The class given is cell-based. As to conditions: read-out: Antibacterial activity (MIC). The procedure: (§1) The compounds of the present invention were tested for minimum inhibitory concentrations (MICs) against the bacteria listed in Table-1 according to the standard microbroth dilution method as described in a NCCLS document. The minimum inhibitory concentrations wer expressed in μg/ml. The test bacteria of 5×10^5 CFU/ml each were subjected to serial dilutions of the test material under aerobic conditions at 35° C. for 18 hours using Mueller Hinton broth. After incubation, the first concentration of wells to show a complete growth inhibition was considered as the MIC.
For orientation: Broth dilution looks for growth in wells or tubes with falling amounts of substance.

For data set [2], the system named is S. aureus TN1152MRSA. Put plainly: MIC, standard microbroth dilution (NCCLS). The data set is classed as cell-based. As to conditions: Staphylococcus aureus, read-out: Antibacterial activity (MIC). As to the method: as §1
Data set [3] has as its system E. coli ATCC 25922. Put plainly: MIC, standard microbroth dilution (NCCLS). As to conditions: Escherichia coli, read-out: Antibacterial activity (MIC). The class given is cell-based. As to the method:
as §1

The test system of data set [4] is S. aureus ATCC 29213. Put plainly: MIC, standard microbroth dilution (NCCLS). As to conditions: Staphylococcus aureus, read-out: Antibacterial activity (MIC). The data set is classed as cell-based. The procedure:
as §1

The subject of data set [5] is E. faecalis 2353 VSE. Put plainly: MIC, standard microbroth dilution (NCCLS). The data set is classed as cell-based. As to conditions: Enterococcus faecalis, read-out: Antibacterial activity (MIC). The procedure: as §1
For data set [6], the system named is E. faecalis 2322 VRE. Kind of data set: MIC, standard microbroth dilution (NCCLS). The class given is cell-based. As to conditions: Enterococcus faecalis, read-out: Antibacterial activity (MIC). As to the method: as §1
A short description of data set [7]: Solubility characteristics of isolated Microsphaeropsin B. The data set is classed as physicochemical.
Setting [8] is: S. epdermidis ATCC1228, 5×10^5 CFU/ml, Mueller Hinton broth, aerobic, 35° C., 18 hours.
[9] abbreviates: S. aureus TN1152MRSA, 5×10^5 CFU/ml, Mueller Hinton broth, aerobic, 35° C., 18 hours.
Setting [10] is: ATCC25922, E. coli ATCC 25922, 5×10^5 CFU/ml, Mueller Hinton broth, aerobic, 35° C., 18 hours.
Setting [11] is: ATCC29213, S. aureus ATCC 29213, 5×10^5 CFU/ml, Mueller Hinton broth, aerobic, 35° C., 18 hours.
Setting [12] is: E. faecalis 2353 VSE, 5×10^5 CFU/ml, Mueller Hinton broth, aerobic, 35° C., 18 hours.
Where [13] appears, read: E. faecalis 2322 VRE, 5×10^5 CFU/ml, Mueller Hinton broth, aerobic, 35° C., 18 hours.

≈ marks a conversion by molar mass, not a printed value. Read-outs that look alike come from different tables or passages of the source.

Consider `CC1(C)S[C@@H]2[C@H](NC(=O)[C@H](N)c3ccccc3)C(=O)N2[C@H]1C(=O)O` [Ampicillin], for which the minimal inhibitory concentration (MIC) was determined as 16 µg/mL (≈ 45.8 µM) in data set [1] (setting [8]); 8 µg/mL (≈ 22.9 µM) in data set [2] (setting [9]); 2 µg/mL (≈ 5.72 µM) in data set [3] (setting [10]); 0.062 µg/mL (≈ 0.177 µM) in data set [4] (setting [11]); 0.25 µg/mL (≈ 0.715 µM) in data set [5] (setting [12]); 32 µg/mL (≈ 91.6 µM) in data set [6] (setting [13]).

As for `C/C=C/C=C/C1C=CC2CC(C)CCC2C1(C)C(=O)C1=C(O)C(C(C)O)NC1=O` (stereo not shown) [Microsphaeropsin B], the MIC in data set [1] (setting [8]) is 1 µg/mL (≈ 2.5 µM); in data set [2] (setting [9]) it was 0.5 µg/mL (≈ 1.25 µM); in data set [3] (setting [10]) it was > 32 µg/mL; in data set [4] (setting [11]), 0.5 µg/mL (≈ 1.25 µM); in data set [5] (setting [12]) it was 1 µg/mL (≈ 2.5 µM); in data set [6] (setting [13]), 2 µg/mL (≈ 5.01 µM). For the same compound, the “Behaviour on addition of water” value in data set [7] (dissolution in ethanol or dimethyl sulphoxide followed by addition of water) was “immediate precipitate formation”. Also, the Solubility entry in data set [7] (in 1M sodium hydroxide solution), in data set [7] (in 5% sodium bicarbonate) and in data set [7] (in water) was “insoluble” throughout.

With `CN[C@H](CC(C)C)C(=O)N[C@H]1C(=O)N[C@@H](CC(N)=O)C(=O)N[C@H]2C(=O)N[C@H]3C(=O)N[C@H](C(=O)N[C@H](C(=O)O)c4cc(O)cc(O)c4-c4cc3ccc4O)[C@H](O)c3ccc(c(Cl)c3)Oc3cc2cc(c3O[C@@H]2O[C@H](CO)[C@@H](O)[C@H](O)[C@H]2O[C@H]2C[C@](C)(N)[C@H](O)[C@H](C)O2)Oc2ccc(cc2Cl)[C@H]1O` [Vancomycin], the MIC in data set [1] (18 h) was 0.5 µg/mL (≈ 0.345 µM); in data set [2] (TN1152MRSA, 18 h), 0.25 µg/mL (≈ 0.173 µM); in data set [3] (ATCC25922, 18 h) it was > 32 µg/mL; in data set [4] (ATCC29213, 18 h), 0.5 µg/mL (≈ 0.345 µM); in data set [5] (2353VSE, 18 h), 0.25 µg/mL (≈ 0.173 µM); in data set [6] (VRE, 18 h), 16 µg/mL (≈ 11 µM).

As a reminder, the MIC is the lowest concentration that inhibits growth of the organism.
